{
  "source": "paper PMC5679017",
  "about": "(Journal of medicinal chemistry, 2016)",
  "key": {"mice [1]": {"tested_on": "mice", "assay": "Cannula placement validation with hPYY, food intake", "type": "in vivo, mouse", "conditions": "2.5 μg human PYY3-36, validated cannulated mice (saline: 0.42 ±0.07 g)"}, "melanocortin receptors": {"tested_on": "melanocortin receptors", "conditions": "cited from earlier work"}, "mice [2]": {"tested_on": "mice", "conditions": "2 nmol dose; 3, 4, 5, 6, 16 and 24 hours after administration; cited from earlier work"}},
  "data": [
    {"molecule": "hPYY: human PYY3-36 (Bachem) used to verify cannula placement", "values": [
      {"measurement": "food eaten four hours after administration", "setting": "mice [1]", "result": "1.79 ± 0.13", "unit": "g"}
    ]},
    {"molecule": "CC(=O)N[C@@H](Cc1c[nH]cn1)C(=O)N[C@H](Cc1ccccc1)C(=O)N[C@@H](CCCNC(=N)N)C(=O)N[C@@H](Cc1c[nH]c2ccccc12)C(N)=O", "note": "[Compound 1, Ac-His-DPhe-Arg-Trp-NH2]", "values": [
      {"measurement": "binding affinity at the melanocortin receptors (reported)", "setting": "melanocortin receptors", "result": "high nanomolar to low micromolar"},
      {"measurement": "food intake after ICV administration (previous study)", "setting": "mice [2]", "result": "decrease food intake"}
    ]}
  ]
}
